Data published in patent US20180186796A1, “COMPOUNDS AND USES THEREOF” (LEAD DISCOVERY SIENA S.R.L., priority 2014, published 2018).
Where two headings read alike, the source gives them in different places.

Assays:
[1] = target: T1, Recombinant human Src (Homo sapiens, UniProt P12931); assay: Enzymatic assay on isolated Src; type: biochemical; conditions: mean of at least two experiments; read-out: Enzymatic Data (Ki, μM) c-Src
T1 construct: purchased Upstate (Lake Placid, N.Y.)
From the text: Recombinant human Src was purchased from Upstate (Lake Placid, N.Y.).

[2] = tested on: SH-SY5Y cells; assay: Spheroid growth assay (SH-SY5Y); type: cell-based; conditions: Homo sapiens; SH-SY5Y Neuroblastoma cell spheroid; read-out: Cellular Data (IC50, μM) SH-SY5Y
Experimental: The in vitro antitumoral action of inhibitors was evaluated by neuroblastoma spheroid assay. The SH-SY5Y cell line was utilized as cell model of human neuroblastoma. Cells were purchased from American Type Culture Collection (ATCC, Manassas, Va., USA) and were cultured in DMEM medium supplemented with 10% Fetal Bovine Serum. IBIDI angiogenesis micro-slides (IBIDI GmbH) coated with growth factor reduced Matrigel (BD, Bioscience) and allowed to polymerize for 30 minutes. SH-SY5Y cells were seeded in a 96-multiwell plate in the presence or not (CTR) of inhibitors. […] The size of cellular spheres, in terms of area and diameter, was determined using an Image Pro-plus v 4.5 analysis system considering 5 random fields/treatment (400× magnification).
Antitumoral effect was also tested by spheroid formation assay.

[3] = tested on: SH-SY5Y cells; conditions: previously reported (ref 20); read-out: antiproliferative effect on SH-SY5Y NB cells (IC50); cited from earlier work
[4] = PAMPA, BBB permeability
Experimental: Donor solution (0.5 mM) was prepared by diluting 1 mM dimethylsulfoxide (DMSO) compound stock solution using phosphate buffer (pH 7.4, 0.025 M). […] Donor solution (150 μL) was added to each well of the filter plate. To each well of the acceptor plate were added 300 μL of solution (50% DMSO in phosphate buffer). All compounds were tested in three different plates on different days. The sandwich was incubated for 5 h at room temperature under gentle shaking. After the incubation time, the plates were separated, and samples were taken from both receiver and donor sides and analyzed using LC with UV detection at 280 nm.
Permeability (Papp) for PAMPA was calculated according to the following equation, obtained from Wohnsland and Faller^27 and Sugano et al.^28 equation with some modification in order to obtain permeability values in cm s^−1,
Drug concentration is estimated by using the peak area integration. Membrane retentions (%) were calculated according to the following equation:
where r is the ratio between drug concentration in the acceptor and equilibrium concentration, D, A, and Eq represented drug concentration in the donor, acceptor and equilibrium solution, respectively.
Donor solution of tested compounds (0.5 mM) was prepared by diluting 1 mM dimethylsulfoxide (DMSO) compound stock solution using phosphate buffer (pH 7.4, 25 mM). […] Donor solution (150 μL) was added to each well of the filter plate. To each well of the acceptor plate were added 300 μL of solution (50% DMSO in phosphate buffer). Compounds was tested in three different plates on different days. The sandwich was incubated for 5 h at room temperature under gentle shaking.
Permeability (Papp) for PAMPA was calculated according to the following equation, obtained from Wohnsland and Faller and Sugano et al.^27, 28.
Drug concentration is estimated by using the peak area integration. Membrane retention (%) was calculated according to the following equation:

[5] = Microsomal stability assay; conditions: percentage of unmodified drug, Table 8
[6] = PAMPA, intestinal (GI) permeability
[7] = tested on: K562 cells; assay: Antiproliferative activity on human cell line K562; type: cell-based; conditions: for IC50: Homo sapiens, K562, read-out: Cellular Data (IC50, μM) K562
Experimental: In vitro experiments were carried out using the human Chronic Myelogeneous Leukemia cell line K562. Cells were purchased from American Type Culture Collection (ATCC, Manassas, Va., USA) and were cultured in RPMI medium supplemented with 10% Foetal Bovine Serum. […] Cell number and vitality were evaluated using the automatic cell counter NucleoCounteri (Chemometec, Denmark). Results from the NucleoCounter represented either total or non-viable cell concentration, depending on the sample preparation indicated by manufacturer.
In vitro experiments were carried out using the human Chronic Myelogeneous Leukemia cell line K562. Cells were purchased from American Type Culture Collection (ATCC, Manassas, Va., USA) and were cultured in RPMI medium supplemented with 10% Foetal Bovine Serum. […] Cell number and vitality were evaluated using the automatic cell counter NucleoCounter® (Chemometec, Denmark). Results from the NucleoCounter represented either total or non-viable cell concentration, depending on the sample preparation indicated by manufacturer.

[8] = tested on: Fyn mediated phosphorylation of residue Tyr18 in Tau protein; assay: Aβ42 induced Tyr18-Tau phosphorylation in differentiated SH-SY5Y cells; type: cell-based, human; conditions: for duration of inhibitory activity on Tau phosphorylation: after compound administration; for Aβ42 induced Tyr18-Tau phosphorylation: dose dependent
Experimental: The neuroblastoma cell line SH-SY5Y was cultured in media obtained by mixing equal volume of MEM and HAM F12 supplemented with 15% fetal calf serum (FCS, Australian origin, Lonza), 100 U/ml penicillin, 100 μg/ml streptomycin and 2 mM L-glutamine (all from Euroclone) at 37° C. in humidified air with 5% CO2. The medium was changed every 48 hours. Cells were split at about 80% confluence and never cultured beyond passage 20. Cell differentiation was achieved by pre-treating for 5 days the SH-SY5Y cells with media containing 1% FCS and 10 μM retinoic acid (RA, Sigma Aldrich). Subsequently cells were treated for other 7 days in media with no serum and supplemented with 50 ng/ml of human recombinant brain derived neurotrophic factor (BDNF, Peprotech), 10 ng/ml human recombinant beta nerve growth factor (NGF, Peprotech), 10 ng/ml neuregulin 1 beta 2 protein (NRG, Abcam) and 9.35 μg/ml vitamin D3 (Sigma Aldrich). To confirm full neuronal differentiation, the expression of mature isoforms of Tau were checked. Differentiated cells were treated for 1.5, 3 and 6 hours with media containing 10 μM Aβ42 oligomer/protofibrils and N2 supplement (Life Technologies), in the presence or in the absence of Fyn inhibitors dissolved in DMSO. As control, cells were treated with media containing equivalent amounts of DMSO.
Briefly, Aβ42 peptides (Sigma) were dissolved in 1,1,1,3,3,3-hexafluoro-2-propanol and lyophilized to completely remove the solvent. Lyophilized Aβ42 peptides were reconstituted in DMSO to a working concentration of 10 mM, diluted 1:100 using HAM F12 (without phenol red and glutammine), vortexed for 15 sec and incubated 24 hours at 4° C. A042 oligomer/protofibrils were visualized by SDS-PAGE and silver staining.

[9] = tested on: human normal fibroblasts; assay: Toxicity in human normal fibroblasts; type: cell-based
[10] = target: recombinant Fyn (Homo sapiens, UniProt P06241); assay: Enzymatic assay on isolated Fyn kinase
Chain of recombinant Fyn (P06241 whole entry, looked up): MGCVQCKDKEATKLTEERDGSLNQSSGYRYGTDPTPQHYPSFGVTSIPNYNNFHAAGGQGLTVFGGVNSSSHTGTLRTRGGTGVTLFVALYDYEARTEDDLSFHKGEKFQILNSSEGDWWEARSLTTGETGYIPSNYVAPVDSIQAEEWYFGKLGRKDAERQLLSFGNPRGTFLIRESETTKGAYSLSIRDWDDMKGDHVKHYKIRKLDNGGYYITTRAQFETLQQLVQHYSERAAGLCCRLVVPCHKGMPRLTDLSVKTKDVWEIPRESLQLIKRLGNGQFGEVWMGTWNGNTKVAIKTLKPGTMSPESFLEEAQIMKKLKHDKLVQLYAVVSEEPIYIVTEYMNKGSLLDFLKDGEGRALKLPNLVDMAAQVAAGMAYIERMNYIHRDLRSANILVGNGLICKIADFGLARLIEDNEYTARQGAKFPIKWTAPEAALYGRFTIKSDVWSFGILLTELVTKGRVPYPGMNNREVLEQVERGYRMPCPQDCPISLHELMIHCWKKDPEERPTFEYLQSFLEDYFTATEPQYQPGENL
Experimental: Kinase assays were performed in presence of 200 μM ATP and 100 μM peptide substrate. All inhibition assays were conducted with 0.01 μg active kinase, 0.33 μmol [^γ32P]ATP, 60 mM HEPES-NaOH pH 7.5, 3 μM Na-orthovanadate, 1.2 mM DTT, 50 μg/ml PEG20.0000, 10 mM magnesium acetate, 0.004% NP40 and 10% DMSO in a final volume of 10 μL. Fyn and inhibitors were preincubated in ice for 5 min; after addition of the substrates the reaction was conducted at 30° C. for 10 min. The reaction was stopped by adding 5 μL of 3% phosphoric acid. Aliquots (10 μL) were then transferred into a P30 Filtermat (PerkinElmer), washed five times with 75 mM phosphoric acid and once with acetone for 5 minute. The filter was dried and transferred to a sealable plastic bag, and scintillation cocktail (4 mL) was added. Spotted reactions were read in a MicroBeta Liquid (Perkinelmer) scintillation counter. The ID50 values were obtained according to the following equation:
Ki values toward recombinant Fyn were calculated using the equation:
according to a competitive mechanism of inhibition toward ATP substrate, where [SATP] is the concentration of ATP. Curve fitting was performed with the program GraphPad Prism version 5.00.

T1 sequence (P12931 whole entry): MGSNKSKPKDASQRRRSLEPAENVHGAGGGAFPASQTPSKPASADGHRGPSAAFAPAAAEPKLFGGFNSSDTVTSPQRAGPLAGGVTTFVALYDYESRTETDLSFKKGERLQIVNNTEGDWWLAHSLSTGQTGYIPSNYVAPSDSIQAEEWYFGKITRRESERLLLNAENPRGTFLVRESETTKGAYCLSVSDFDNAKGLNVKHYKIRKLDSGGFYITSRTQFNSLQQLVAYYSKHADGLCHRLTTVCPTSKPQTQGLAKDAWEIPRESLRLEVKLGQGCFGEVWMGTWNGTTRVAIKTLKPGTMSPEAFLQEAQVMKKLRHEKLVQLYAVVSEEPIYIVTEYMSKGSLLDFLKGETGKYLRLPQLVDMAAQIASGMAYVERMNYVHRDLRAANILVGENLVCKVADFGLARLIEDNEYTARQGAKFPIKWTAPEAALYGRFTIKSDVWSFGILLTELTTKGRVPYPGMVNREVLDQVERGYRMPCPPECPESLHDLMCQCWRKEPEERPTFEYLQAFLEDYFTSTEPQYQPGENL

Fc1ccccc1CNc1nc(SCCN2CCOCC2)nc2c1cnn2CCc1ccccc1
Ki [1]: 0.17 µM
IC50 [2]: 63 µM

CSc1nc(Nc2cccc(Cl)c2)c2cnn(CCc3ccccc3)c2n1 [Si214, N-(3-chlorophenyl)-6-(methylthio)-1-phenethyl-1H-pyrazolo[3,4-d]pyrimidin-4-amine]
IC50 [3]: 80 nM
PAMPA BBB (MR %) ([4]; Membrane Retention, BBB): (55.7) %
Papp at 5 h, 0.5 mM ([4]; PAMPA, pH 7.4): 1.48 ×10⁻⁶ cm/s
Metabolic Stab. % [5]: 99.0%
PAMPA GI ([6]; Gastrointestinal PAMPA, Table 8): 0 10^−6 cm · sec^−1
PAMPA GI (MR %) ([6]; Membrane Retention, GI): (78.0) %

Nc1ncnc2c1c(-c1ccc(Cl)cc1)nn2CC(Cl)c1ccccc1 (stereo not drawn) [Si308, 3-(4-Chlorophenyl)-1-(2-chloro-2-phenylethyl)-1H-pyrazolo[3,4-d]pyrimidin-4-amine]
IC50 for cell viability K562 [7]: submicromolar range
IC50 [7]: 0.56 ± 0.01 µM
duration of inhibitory activity on Tau phosphorylation [8]: effective up to six hours
Aβ42 induced Tyr18-Tau phosphorylation [8]: significantly affected
cell toxicity in human normal fibroblasts [9]: did not showed any sign of cell toxicity
melting point: 150 to 151 °C
Ki [10]: 95 nM
Ki ([10]; read-out: Ki Fyn): 70 nM

Cc1ccc(-c2nn(CC(Cl)c3ccccc3)c3ncnc(N)c23)cc1 (stereo not drawn) [Si309, 1-(2-Chloro-2-phenylethyl)-3-(4-methylphenyl)-1H-pyrazolo[3,4-d]pyrimidin-4-amine]
IC50 for cell viability K562 [7]: submicromolar range
IC50 [7]: 0.3 ± 0.06 µM
duration of inhibitory activity on Tau phosphorylation [8]: effective up to six hours
Aβ42 induced Tyr18-Tau phosphorylation [8]: significantly affected
cell toxicity in human normal fibroblasts [9]: did not showed any sign of cell toxicity
